# Measured values as given in US11932652B2, “Pyrrolidinyl urea derivatives and application thereof in TrkA-related diseases” (ZHANGZHOU PIEN TZE HUANG PHARMACEUTICAL CO., LTD., priority 2018, dated 2024).
# Key:
# CYP3A4 = target: T1, CYP3A4 (Homo sapiens, UniProt P08684); assay: Cytochrome P450 isozyme inhibitory activity test, CYP3A4; format: in vitro ADME; details: human, human liver microsomes
# T1 construct: from tissue; host or cells: human liver microsomes
# Experimental: (§1) Determination of the inhibitory activity of the test compound on different human cytochrome P450 isozymes.
# (§2) The test compound, standard inhibitor (100×final concentration), and a mixed substrate working solution were prepared; the microsome frozen in −80° C. refrigerator was thawed. 2 μL of the test compound and standard inhibitor solution was added to the corresponding wells, and at the same time 2 μL of the corresponding solvent was added to the non-inhibitor control wells (NIC) and blank control wells (Blank) wells; then 20 μL of mixed substrate solution was added to the corresponding wells, except for the Blank wells (20 μL of PB was added to the Blank wells); a human liver microsome solution was prepared (put back into the refrigerator immediately after using and marking the date), and then 158 μL of the human liver microsome solution was added to all wells; the above sample plate was placed in a 37° C. water bath for pre-incubation, then the coenzyme factor (NADPH) solution was prepared; 10 minutes later, 20 μL of the NADPH solution was added to all wells, and the sample plate was shaken well, placed in a 37° C. water bath and incubated for 10 minutes; at the corresponding time point, 400 μL of cold acetonitrile solution (internal standard: 200 ng/mL tolbutamide and labetalol) was added to terminate the reaction; the sample plate was evenly mixed, centrifuged at 4000 rpm for 20 minutes to precipitate proteins; 200 μL of the supernatant was added to 100 μL of water, shook well, and tested by LC/MS/MS.
# CYP2C19 = target: T2, CYP2C19 (Homo sapiens, UniProt P33261); assay: Cytochrome P450 isozyme inhibitory activity test, CYP2C19; format: in vitro ADME; details: heading: Cytochrome P450 isozyme IC50, CYP2C19; human liver microsome
# T2 construct: from tissue; host or cells: human liver microsomes
# Experimental: as §1, §2
# CYP2D6 = target: T3, CYP2D6 (Homo sapiens, UniProt P10635); assay: Cytochrome P450 isozyme inhibitory activity test, CYP2D6; format: in vitro ADME; details: human liver microsomes
# T3 construct: from tissue; host or cells: human liver microsomes
# Experimental: as §1
# (§3) The test compound, standard inhibitor (100×final concentration), and a mixed substrate working solution were prepared; the microsome frozen in −80° C. refrigerator was thawed. […]
# TrkA = target: T4, TrkA (Homo sapiens, UniProt P04629); assay: TrkA enzyme activity test (HTRF); format: biochemical; details: 0.5 nM TrkA kinase, 90 μM ATP, 23° C., 90 minutes
# T4 construct: purchased Invitrogen PV4114
# Experimental: 50 mM Hepes (pH 7.5), 5 mM MgCl2 (magnesium chloride), 0.01 mM orthovanadate (sodium vanadate), 1% BSA (bovine serum albumin), 1 mM (dithiothreitol)
# This experiment used Cisbio's homogeneous time-resolved fluorescence resonance energy transfer (HTRF® method) for activity test. In the test plate, the enzyme, biotin-labeled peptide substrate, ATP, and test compound were mixed, and incubated for reaction. After the reaction, ethylenediaminetetraacetic acid was added to terminate the reaction; at the same time, Eu-labeled antibody and streptavidin-labeled XL665 were added for reaction and detection. The data were expressed by the readings of the fluorescence signal at 665 nm and 620 nm, where a high ratio of 665 nm/620 nm indicated higher activity, and a low ratio of 665 nm/620 nm indicated inhibition of activity.
# 1. Dilution of compound: the test compound was 3-fold diluted to prepare a total of 11 concentrations, the concentration was from 10 μM to 0.17 nM in the final system;
# 2. A 10 μL reaction system with a buffer of 50 mM Hepes (pH 7.5), 5 mM MgCl2, 0.01 mM sodium vanadate, 1% BSA, and 1 mM DTT, and containing 0.5 nM TrkA kinase, 0.3 μM biotin-TK peptide (biotin-labeled tyrosine kinase substrate peptide), 90 μM ATP was incubated at 23° C. for 90 minutes. 10 μL of stop solution containing 20 mM EDTA, 1.34 nM phosphorylated substrate antibody, and 100 nM streptavidin-labeled fluorescent molecule XL-665 was then added, incubated at 23° C. for 60 minutes; the signal was read with Envision;
# 3. The inhibition rate of the compound was calculated from the data read by the instrument, and the IC50 value was calculated using the mode 205 in XLFIT5 of IDBS.
# CYP2C9 = target: T5, CYP2C9 (Homo sapiens, UniProt P11712); assay: Cytochrome P450 isozyme inhibitory activity test, CYP2C9; format: in vitro ADME
# T5 construct: from tissue; host or cells: human liver microsomes
# Experimental: as §1, §3
# plasma protein [1] = assay: Plasma protein binding rate (PPB) test, SD rat plasma; format: in vitro ADME; details: 2 μM, dialysis 37° C. 4 hours
# Experimental: (§4) The protein binding rates of the test compound in the plasma of humans, SD rats and Beagle dogs were determined.
# (§5) 796 μL of blank plasma from humans, SD rats and Beagle dogs (plasma purchased from BioreclamationIVT) were taken, 4 μL of working solution of the test compound (400 μM) or warfarin working solution (400 μM) was added and the final concentration of the test compound or warfarin was 2 μM. The sample was mixed thoroughly. The final concentration of organic phase DMSO was 0.5%; 50 μL of the plasma sample treated with the test compound or warfarin was pipetted into the sample receiving plate, and a corresponding volume of blank plasma or buffer was added immediately so that the final volume in each sample well was 100 μL, the volume ratio of plasma:dialysis buffer was 1:1; 400 μL of stop solution was added to these samples, and these samples were used as T0 samples for recovery and stability determination. To samples were stored at 2° C. to 8° C. for subsequent processing together with other dialyzed samples; 150 μL of the plasma sample treated with the test compound or warfarin was added into the dosing end of each dialysis hole, and 150 μL of blank dialysis buffer was added to the receiving end corresponding to the dialysis hole. Then the dialysis plate was sealed with gas-permeable membrane and placed in a humidified 5% CO2 incubator, and incubated at 37° C. with 100 rpm shaking for 4 hours. After the dialysis, 50 μL of the dialysis buffer sample and the dialysis plasma sample was transferred to a new sample receiving plate. […] All samples were analyzed by LC/MS/MS after protein precipitation, and the plasma protein unbound rate, binding rate and recovery rate was calculated according to the following formula: % unbound rate=100*free compound concentration at the membrane buffer side/total compound concentration at the membrane plasma side, % protein binding rate=100-% unbound rate, % recovery rate=100*(free compound concentration at the membrane buffer side+total compound concentration at the membrane plasma side)/total compound concentration before dialysis.
# [2] = Metabolic stability (MMS) by human liver microsome; format: in vitro ADME; details: liver microsomes, pH 7.4, 0.5 mg protein/mL, read-out: Intrinsic clearance by liver microsome, Human
# Experimental: (§6) Determination of the metabolic stability of the test compound by human, rat and canine liver microsome.
# (§7) Test compound (10 mM), testosterone (reference compound, 10 mM), diclofenac (reference compound, 10 mM), propafenone (reference compound, 10 mM).
# (§8) 100 mM potassium phosphate buffer (pH 7.4).
# (§9) Intermediate solution: 45 μL of DMSO was used (with 450 μL of 1:1 methanol/water) to dilute 5 μL of the test or reference compound.
# (§10) Working solution: 450 μL of 100 mM potassium phosphate buffer was used to dilute the intermediate solution.
# (§11) 1. β-Nicotinamide adenine dinucleotide phosphate, from Sigma, Cat. No. N0505.
# (§12) 3. Isocitrate dehydrogenase, from Sigma, Cat. No. 12002.
# (§13) Preparation of liver microsome solution (final concentration: 0.5 mg protein/mL)
# (§14) Cold acetonitrile containing 100 ng/mL tolbutamide and 100 ng/mL labetalol was used as the internal standard.
# (§15) 10 μL of the working solution of the test compound or reference compound was added to all plates (T0, T5, T10, T20, T30, T60, NCF60).
# (§16) 680 μL of liver microsome solution was added to each well of 96-well plates, then 80 μL was added to each well of the plates, and the plates were placed at 37° C. for pre-incubation for approximately 10 minutes. […]
# (§17) The half-life T/2 and the intrinsic clearance by liver microsome Clint(mic) were calculated by the following formulas: […]
# [3] = Metabolic stability (MMS) by rat liver microsome; format: in vitro ADME; details: liver microsomes, pH 7.4, 0.5 mg protein/mL, read-out: Intrinsic clearance by liver microsome, Rat
# Experimental: as §6, §7, §8, §9, §10, §11, §12, §13, §14, §15, §16, §17
# plasma protein [4] = assay: Plasma protein binding rate (PPB) test, human plasma; format: in vitro ADME; details: 2 μM, dialysis 37° C. 4 hours
# Experimental: as §4, §5
# T4 sequence (P04629 33-796): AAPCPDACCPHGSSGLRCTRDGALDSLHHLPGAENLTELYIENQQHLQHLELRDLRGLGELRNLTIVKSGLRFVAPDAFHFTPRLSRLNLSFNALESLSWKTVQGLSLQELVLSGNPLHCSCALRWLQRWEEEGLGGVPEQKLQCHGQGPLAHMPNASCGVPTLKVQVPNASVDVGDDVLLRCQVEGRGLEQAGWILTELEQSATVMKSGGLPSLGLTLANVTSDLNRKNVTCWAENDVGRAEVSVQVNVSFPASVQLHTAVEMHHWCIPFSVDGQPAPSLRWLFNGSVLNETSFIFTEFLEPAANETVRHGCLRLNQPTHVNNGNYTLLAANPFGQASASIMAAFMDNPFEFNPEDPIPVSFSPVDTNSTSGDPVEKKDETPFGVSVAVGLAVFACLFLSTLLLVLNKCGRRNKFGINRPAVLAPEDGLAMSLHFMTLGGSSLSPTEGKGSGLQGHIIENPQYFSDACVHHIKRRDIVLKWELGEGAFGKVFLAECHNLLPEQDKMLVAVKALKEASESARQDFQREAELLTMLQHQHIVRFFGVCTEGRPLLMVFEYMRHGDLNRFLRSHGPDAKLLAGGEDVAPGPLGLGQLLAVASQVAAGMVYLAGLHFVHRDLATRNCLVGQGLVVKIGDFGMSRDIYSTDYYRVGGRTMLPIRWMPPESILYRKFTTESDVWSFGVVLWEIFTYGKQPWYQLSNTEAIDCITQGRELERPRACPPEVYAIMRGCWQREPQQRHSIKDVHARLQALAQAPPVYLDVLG
# T1 sequence (P08684 whole entry): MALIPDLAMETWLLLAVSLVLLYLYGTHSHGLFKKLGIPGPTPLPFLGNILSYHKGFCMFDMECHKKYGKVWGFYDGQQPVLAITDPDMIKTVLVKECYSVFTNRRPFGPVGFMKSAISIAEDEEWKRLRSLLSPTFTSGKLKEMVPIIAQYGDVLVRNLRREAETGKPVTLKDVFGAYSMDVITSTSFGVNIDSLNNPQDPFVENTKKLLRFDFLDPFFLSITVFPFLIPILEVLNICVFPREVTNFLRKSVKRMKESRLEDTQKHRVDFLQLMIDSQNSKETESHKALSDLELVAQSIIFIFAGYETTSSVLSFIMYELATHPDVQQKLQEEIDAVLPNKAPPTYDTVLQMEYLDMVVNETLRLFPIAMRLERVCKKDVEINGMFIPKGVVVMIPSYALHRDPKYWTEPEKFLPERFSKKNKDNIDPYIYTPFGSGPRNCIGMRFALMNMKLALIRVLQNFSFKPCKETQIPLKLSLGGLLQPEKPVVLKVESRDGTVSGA
# T2 sequence (P33261 whole entry): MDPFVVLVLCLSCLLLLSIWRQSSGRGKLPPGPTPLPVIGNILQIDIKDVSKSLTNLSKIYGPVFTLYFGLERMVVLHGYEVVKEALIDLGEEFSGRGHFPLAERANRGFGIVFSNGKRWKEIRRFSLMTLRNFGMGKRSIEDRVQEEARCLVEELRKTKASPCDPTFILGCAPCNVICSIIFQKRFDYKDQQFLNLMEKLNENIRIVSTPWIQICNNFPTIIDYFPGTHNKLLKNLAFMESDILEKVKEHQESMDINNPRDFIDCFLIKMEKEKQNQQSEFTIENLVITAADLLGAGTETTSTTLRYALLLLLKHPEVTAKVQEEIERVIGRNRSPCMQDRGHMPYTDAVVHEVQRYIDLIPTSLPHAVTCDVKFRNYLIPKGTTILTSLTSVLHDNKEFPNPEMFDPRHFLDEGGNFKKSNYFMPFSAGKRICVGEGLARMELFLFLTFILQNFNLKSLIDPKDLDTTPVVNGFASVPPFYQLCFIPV
# T3 sequence (P10635 whole entry): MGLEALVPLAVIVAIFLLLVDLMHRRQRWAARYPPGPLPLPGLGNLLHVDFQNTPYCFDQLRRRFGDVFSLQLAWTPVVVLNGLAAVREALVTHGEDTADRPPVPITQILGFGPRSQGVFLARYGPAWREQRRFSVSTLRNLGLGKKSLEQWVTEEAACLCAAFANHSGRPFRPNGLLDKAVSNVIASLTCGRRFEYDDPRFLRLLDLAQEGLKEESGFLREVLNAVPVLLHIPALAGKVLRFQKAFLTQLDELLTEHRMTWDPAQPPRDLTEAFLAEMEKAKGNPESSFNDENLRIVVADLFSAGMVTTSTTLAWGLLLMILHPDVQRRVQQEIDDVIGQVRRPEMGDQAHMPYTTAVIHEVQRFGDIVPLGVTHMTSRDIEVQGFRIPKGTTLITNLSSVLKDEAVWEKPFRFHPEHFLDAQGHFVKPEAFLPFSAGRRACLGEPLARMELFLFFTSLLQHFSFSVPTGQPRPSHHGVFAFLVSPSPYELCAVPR
# T5 sequence (P11712 whole entry): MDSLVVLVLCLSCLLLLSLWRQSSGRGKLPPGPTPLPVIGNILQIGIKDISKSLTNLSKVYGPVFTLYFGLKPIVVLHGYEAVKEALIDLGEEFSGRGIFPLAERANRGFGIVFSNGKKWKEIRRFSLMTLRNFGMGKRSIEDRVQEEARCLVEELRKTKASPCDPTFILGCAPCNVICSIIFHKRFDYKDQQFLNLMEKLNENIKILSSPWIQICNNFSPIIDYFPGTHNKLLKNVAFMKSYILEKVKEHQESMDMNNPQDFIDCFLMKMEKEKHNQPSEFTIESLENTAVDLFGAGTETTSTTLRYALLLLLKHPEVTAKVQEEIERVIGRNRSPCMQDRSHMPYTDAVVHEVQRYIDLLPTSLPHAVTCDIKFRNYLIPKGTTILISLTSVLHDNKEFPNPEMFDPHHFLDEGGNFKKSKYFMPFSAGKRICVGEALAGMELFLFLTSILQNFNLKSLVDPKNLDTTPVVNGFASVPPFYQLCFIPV
structure (smiles),measurement,setting,value
COCCN1C[C@@H](n2cc(F)c(F)c2)[C@H](NC(=O)Nc2c(C)c(-c3cnc4c(c3)COC4)nn2-c2ccccc2)C1 [Compound 1],IC50 at 10 min,CYP3A4,19.2 µM
same,IC50,CYP2C19,> 50 µM
same,IC50 at 10 min,CYP2D6,28.5 µM
same,IC50,TrkA,0.00016 µM
same,IC50 at 10 min,"CYP2C9; human, human liver microsomes",24.2 µM
COCCN1C[C@@H](n2cc(F)c(F)c2)[C@H](NC(=O)Nc2c(C)c(-c3cnc4c(c3)CN(C)C4)nn2-c2ccccc2)C1 [Compound 2],"Plasma protein unbound rate, SD Rat plasma",plasma protein [1],5.1%
same,CLint scaled,[2],54.6 mL/min/kg
same,CLint scaled,[3],25.5 mL/min/kg
same,"Plasma protein unbound rate, Human plasma",plasma protein [4],15.3%
same,IC50,TrkA,0.00027 µM
COCCN1C[C@@H](n2ccc(F)c2)[C@H](NC(=O)Nc2c(C)c(-c3cc4n(n3)CCC4)nn2-c2ccccc2)C1 [Compound 4],IC50,TrkA,0.00305 µM
COCCN1C[C@@H](n2ccc(F)c2)[C@H](NC(=O)Nc2c(C)c(-c3cnc4c(c3)COC4)nn2-c2ccccc2)C1 [Compound 5],IC50,TrkA,0.00024 µM
COCCN1C[C@@H](n2cc(F)c(F)c2)[C@H](NC(=O)Nc2c(C)c(-c3cnc(C4(F)COC4)nc3)nn2-c2ccccc2)C1 [Compound 6],IC50,TrkA,0.00027 µM
COCCN1C[C@@H](n2ccc(F)c2)[C@H](NC(=O)Nc2c(C)c(-c3cnc(C4(F)CNC4)nc3)nn2-c2ccccc2)C1 [Compound 8],IC50,TrkA,0.00103 µM
"COCCN1C[C@@H](NC(=O)Nc2c(C)c(-c3cnc(C)nc3)nn2-c2ccccc2)[C@H](c2cccc(F)c2)C1 [Reference compound D1, reference compound]",IC50 at 10 min,CYP3A4,37.1 µM
same,"Plasma protein unbound rate, SD Rat plasma",plasma protein [1],9.6%
same,IC50,CYP2C19,> 50 µM
same,CLint scaled,[2],52.1 mL/min/kg
same,CLint scaled,[3],52.9 mL/min/kg
same,IC50 at 10 min,CYP2D6,39.7 µM
same,"Plasma protein unbound rate, Human plasma",plasma protein [4],13.6%
same,IC50,"CYP2C9; heading: Cytochrome P450 isozyme IC50, CYP2C9, human liver microsome",> 50 µM
